Results taken from patent publication US8461329B2, “Isoquinoline derivative” (Taisho Pharmaceutical Co., Ltd., priority 2008, dated 2013).
pIC50: −log10 of the molar value. Counter-ions that a name gives are not always drawn.

The molecules below were run against T1, CRTH2 (KB8 cells) (Homo sapiens, UniProt Q9Y5Y4) (assay: CRTH2 antagonist test (PGD2-induced intracellular calcium ion concentration increase in KB8 cells)). Conditions: PGD2 100 nM, Fluo-4 calcium fluorescence, read-out: CRTH2 antagonist activity IC50 value.
T1 construct: host or cells: KB8 cells (human CRTH2 expression cell)
T1 sequence (Q9Y5Y4 1-395): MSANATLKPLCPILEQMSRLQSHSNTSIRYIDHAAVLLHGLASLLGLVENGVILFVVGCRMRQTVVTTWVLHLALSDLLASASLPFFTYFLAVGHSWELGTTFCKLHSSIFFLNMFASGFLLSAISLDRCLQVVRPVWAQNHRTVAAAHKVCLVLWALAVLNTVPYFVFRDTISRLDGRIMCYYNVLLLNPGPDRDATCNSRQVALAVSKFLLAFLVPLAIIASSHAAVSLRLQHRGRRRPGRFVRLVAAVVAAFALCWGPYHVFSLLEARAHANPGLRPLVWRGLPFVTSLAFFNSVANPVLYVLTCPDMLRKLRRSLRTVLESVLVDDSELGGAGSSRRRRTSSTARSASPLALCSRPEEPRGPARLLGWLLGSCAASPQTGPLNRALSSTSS
Format: cell-based
Method in brief: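 Fluo-4-AM-loaded KB8 cells in HBSS with 10 mM HEPES and 1 mM CaCl2 received compound plus PGD2 (final 100 nM); peak fluorescence followed over time. Inhibition was computed against no-compound and unlabelled-PGD2 controls, and IC50 obtained from a dose-response curve.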

Structure (SMILES) | pIC50
O=C(O)Cc1cnc(Cc2ccc(C(=O)NCCc3ccc(C(F)(F)F)cc3)cc2)c2ccccc12 [Example 201] | 7.70
O=C(O)Cc1cnc(C(=O)c2ccc(NC(=O)c3cc4cc(F)ccc4[nH]3)cc2)c2ccccc12 [Example 122] | 8.64

Same assay, conditions: PGD2 final concentration 100 nM, Fluo-4-AM fluorescence, read-out: antagonist activity (IC50 value, inhibition of calcium ion concentration increase)

Structure (SMILES) | pIC50
O=C(O)Cc1cnc(C(=O)c2ccc(NC(=O)Cc3c[nH]c4ccccc34)cc2)c2ccccc12 [Example 126] | > 7.30
O=C(O)Cc1cnc(Cc2ccc(C(=O)NCCc3nc4ccccc4s3)cc2)c2ccccc12 [Example 250] | > 7.30
O=C(O)Cc1cnc(C(=O)c2ccc(NC(=O)C3=CCCCC3)cc2)c2ccccc12 [Example 90] | 6.30 to 7.30
O=C(O)Cc1cnc(Cc2ccc(OCCOc3ccc(Cl)cc3)cc2)c2ccccc12 [Example 151] | 6.30 to 7.30
O=C(O)Cc1cnc(C(=O)c2ccc(NC(=O)C3CCCCC3)cc2)c2ccccc12 [Example 76] | 6.30 to 7.30
O=C(O)Cc1cnc(C(=O)c2ccc(CNCc3ccc(Cl)cc3)cc2)c2ccccc12 [Example 147, {1-[(4-{[(4-chlorobenzyl)amino]methyl}phenyl)carbonyl]isoquinolin-4-yl}acetic acid hydrochloride] | ≤ 6.00
C=Cc1ccc(C(=O)Nc2ccc(C(=O)c3ncc(CC(=O)O)c4ccccc34)cc2)cc1 [Example 64] | > 7.30
Cc1cc(C)cc(CCNC(=O)c2ccc(Cc3ncc(CC(=O)O)c4ccccc34)cc2)c1 [Example 231] | > 7.30
O=C(O)Cc1cnc(C(=O)c2ccc(NC(=O)c3ccc4c(c3)CCCC4)cc2)c2ccccc12 [Example 54] | > 7.30
COc1cc2c(CC(=O)O)cnc(C(=O)c3ccc(C(=O)NCCc4ccc(Cl)cc4)cc3)c2cc1OC [Example 259, {1-[(4-{[2-(4-chlorophenyl)ethyl]carbamoyl}phenyl)carbonyl]-6,7-dimethoxyisoquinolin-4-yl}acetic acid] | 6.30 to 7.30
Cc1ccc(C(=O)Nc2ccc(C(=O)c3ncc(CC(=O)O)c4ccccc34)cc2)cc1C [Example 101] | > 7.30
O=C(O)Cc1cnc(Cc2ccc(C(=O)NCCc3cccc(Br)c3)cc2)c2ccccc12 [Example 172] | 6.30 to 7.30
O=C(O)Cc1cnc(Cc2ccc(C(=O)NCCc3ccc(C(F)(F)F)cc3)cc2)c2ccccc12 [Example 201] | > 7.30
O=C(O)Cc1cnc(Cc2ccc(C(=O)NCCc3cc(F)cc(F)c3)cc2)c2ccccc12 [Example 212] | 6.30 to 7.30
Cc1ccc2sc(CCNC(=O)c3ccc(Cc4ncc(CC(=O)O)c5ccccc45)cc3)cc2c1 [Example 242] | > 7.30
O=C(O)Cc1cnc(Cc2ccc(C(=O)NCCc3ccc(Cl)c(Cl)c3)cc2)c2ccccc12 [Example 160] | > 7.30
O=C(O)Cc1cnc(Cc2ccc(C(=O)NCCc3ccc(F)c(F)c3)cc2)c2ccccc12 [Example 229] | > 7.30
Cc1ccc(CCNC(=O)c2ccc(Cc3ncc(CC(=O)O)c4ccccc34)cc2)cc1C [Example 168] | 6.30 to 7.30
O=C(O)Cc1cnc(C(=O)c2ccc(NC(=O)c3c[nH]cn3)cc2)c2ccccc12 [Example 97] | ≤ 6.00
C/C(=C\c1ccccc1)C(=O)Nc1ccc(C(=O)c2ncc(CC(=O)O)c3ccccc23)cc1 [Example 78] | > 7.30
CC(C)(C)c1ccc(CCNC(=O)c2ccc(Cc3ncc(CC(=O)O)c4ccccc34)cc2)cc1 [Example 193] | > 7.30
O=C(O)Cc1cnc(C(=O)c2ccc(NC(=O)c3cc4cc(F)ccc4[nH]3)cc2)c2ccccc12 [Example 122] | > 7.30
O=C(O)Cc1cnc(C(=O)c2ccc(NC(=O)c3ccc(F)cc3Cl)cc2)c2ccccc12 [Example 47] | 6.00 to 6.30
O=C(O)Cc1cnc(C(=O)c2ccc(Oc3ccccc3)cc2)c2ccccc12 [Example 145] | ≤ 6.00
O=C(O)Cc1cnc(Cc2ccc(OCCCc3ccc(Cl)cc3)cc2)c2ccccc12 [Example 150] | 6.30 to 7.30
O=C(O)Cc1cnc(C(=O)c2ccc(NC(=O)c3cc(F)c(F)c(F)c3F)cc2)c2ccccc12 [Example 118] | 6.00 to 6.30
O=C(O)Cc1cnc(Cc2ccc(C(=O)NCCOc3ccc(Cl)cc3)cc2)c2ccccc12 [Example 178] | 6.30 to 7.30
O=C(O)Cc1cnc(Cc2ccc(C(=O)NCCc3cccc(Cl)c3Cl)cc2)c2ccccc12 [Example 226] | > 7.30
CCCCCCc1ccc(CCNC(=O)c2ccc(Cc3ncc(CC(=O)O)c4ccccc34)cc2)cc1 [Example 238] | > 7.30
